Experiments:
[1] = MTS score (Table 1; method not described); type: cell-based
[2] = tested on: HIV-1NL43; experiment: Anti-HIV assay (single round), p24 production by pNL43-transfected cells (ELISA); type: cell-based; settings: p24 in supernatant of NL43-transfected 293T cells, 72 hours; read-out: p24 50%
Method: Anti-HIV Assays (Single Round). The inhibitory effect of the compounds on virus production and infectivity were determined by measuring the level of p24 produced in the presence of various concentrations of compounds from HEK-293 cells transiently transfected with pNL43 and by titering the virus on TZM-b1 cells. Briefly, 2.5×10^5 HEK-293 cells/ml were transfected with pNL43 using FuGene 6. Four hours post transfection the cells were plated in 96-well plates containing 100 μl of various concentrations of compounds (0-75 μM or 0-300 μM for mock transfected cells) in triplicate. At 72-hours post transfection virus supernatant was collected and stored at −80° C. until analysis. The level of p24 produced at each compound concentration was determined relative to the level produced in the presence of the DMSO only controls using HIV-1 p24 enzyme-linked immunosorbent assay (ELISA) (Beckman-Coulter). To determine the infectivity of the virus produced TZM-b1 cells were plated at 1×10^5 cells/ml in 100 μL in 96-well plates overnight. The next day, the media was replaced with 75 μL DMEM supplemented with 1% FBS, 1× PSG and 40 μg/ml DEAE Dextran and 25 μL of viral supernatant from the HEK-293 cells was added to each well. Three hours later 100 μL of DMEM with 7% FBS was added to each well. Two days after infection the cells were lysed and the level of luciferase expression was determined using the Bright-Glo assay.
FIGS. 12-18 show the anti-HIV assays for the examples of chemical compounds used according to the invention. After in-vitro assay, the chemical compounds in FIGS. 12-18 were selected for screening for cell viability and toxicity. Jurkat cells assay was used as screening assay. In Jurkat cells assay, JLTRG-R5 cells were used as Indicator cells and MOLT4 cells as Producer cells of NL43 and BAL virus. 96 chemical compounds were plated at seven different concentration from 75 μM to 0 μM at three-fold serial dilutions in 384 well plate. After five days, GFP expression was read. Cell viability was monitored with Alamar Blue assay. Luc M7 assay was designed to measure inhibitory activity of the chemical compounds to viral replication. After infection of cells with YU2 virus, plate cells in 96-well plate in the presence of six concentration of compounds in DMSO. At day 6, the number of cells in wells were read with Cell Titer Glo kit or by counting the number of cells infected with Bright Glo kit. 293T cells assay was designed to determine the toxicity. 293T cells were transfected with NL43. After four hours, transfected cells were plated in 96-well plate in DMSO and 2 μM Indinavir. 72 hours later, viral supernatant was collected and plated on JC53BL. Luciferase expression was measure after two days and p24 analysis was conducted with 1:1000 and 1:2000 dilutions.

[3] = target: C-terminal domain of the CA protein (Human immunodeficiency virus type 1 group M subtype B, UniProt P12493); settings: 1 mM compound, 0.02 mM protein domain; peaks at 5.5 ppm and 8 ppm
From the text: (§1) The STD-NMR spectroscopy is an extremely powerful and sensitive technique to detect and identify the binding of low molecular weight (MW) ligands specific to a target protein of interest. […] This technique exploits the transfer of radio frequency saturation of the proton magnetization on the large protein to the low MW ligand during the brief period it resides within the binding pocket of the protein, before it is released into solution. It also exploits the large differences in the correlation times of the interacting molecules.

[4] = target: N-terminal domain of the CA protein (Human immunodeficiency virus type 1 group M subtype B, UniProt P12493); settings: 1 mM compound; peaks at 5.5 ppm and 8 ppm
From the text: as §1

## Cc1ncc(C[n+]2csc(CCOC(=O)C3C4CC5CC(C4)CC3C5)c2C)c(N)n1.Cl.[Cl-] (stereo not shown) [Compound 26]
[1]; average of the MTS scores at 10, 30 and 100 μM
  MTS AVG 4 (No Effect): 4.000
[1]; score at nominal 10 μM, 4 = No Effect
  MTS 10 μM: 4
[1]; score at nominal 30 μM, 4 = No Effect
  MTS 30 μM: 4
[1]; score at nominal 100 μM, 4 = No Effect
  MTS 100 μM: 4
[2]
  IC50: 60.2 µM
[3]
  binding to the CTD domain (STD-NMR): binding of the chemical compound 26 to the CTD domain is clearly indicated
[4]
  binding to the NTD domain (STD-NMR): binds to the NTD domain
